# Results taken from ChEMBL document CHEMBL1201862, “PubChem BioAssay data set” (2004).
#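 Five concentrations, 48 hours, 96-well plates. GI50 is the concentration that inhibits growth by half.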 Activity calls are given as the source filed them. No stated cut-off is given here; in the data, active = GI50 up to about 1.1 µM and inactive = higher.
# Assays:
# Assay in all cases: growth of human tumour cells (NCI), 48 h
# CCRF-CEM = system: CCRF-CEM
# HCT-116 = system: HCT-116
# 786-0 = system: 786-0
# SK-MEL-2 = system: SK-MEL-2
# MOLT-4 = system: MOLT-4
# K562 = system: K562
# HOP-18 = system: HOP-18
# NCI-H522 = system: NCI-H522
# M14 = system: M14
# OVCAR-3 = system: OVCAR-3
# DMS-273 = system: DMS-273
# U-251 = system: U-251
# RXF 393 = system: RXF 393
# NCI-H460 = system: NCI-H460
# SK-MEL-28 = system: SK-MEL-28
# HL-60 = system: HL-60
# DMS-114 = system: DMS-114
# RPMI-8226 = system: RPMI-8226
# SNB-78 = system: SNB-78
# HCC 2998 = system: HCC 2998
# HCT-15 = system: HCT-15
# UO-31 = system: UO-31
# LXFL 529 = system: LXFL 529
# SK-OV-3 = system: SK-OV-3
# SF-268 = system: SF-268
# A549 = system: A549
# Malme-3M = system: Malme-3M
# TK-10 = system: TK-10
# UACC-62 = system: UACC-62
# MDA-MB-435 = system: MDA-MB-435
# BT-549 = system: BT-549
# SR = system: SR
# OVCAR-4 = system: OVCAR-4
# OVCAR-8 = system: OVCAR-8
# A498 = system: A498
# SNB-75 = system: SNB-75
# SN12C = system: SN12C
# Hs-578T = system: Hs-578T
# NCI-H23 = system: NCI-H23
# SW-620 = system: SW-620
# HOP-62 = system: HOP-62
# PC-3 = system: PC-3
# SF-295 = system: SF-295
# MDA-N = system: MDA-N
# KM12 = system: KM12
# NCI-H226 = system: NCI-H226
# MCF7 = system: MCF7
# SK-MEL-5 = system: SK-MEL-5
# HT-29 = system: HT-29
# SF-539 = system: SF-539
# OVCAR-5 = system: OVCAR-5
# CAKI-1 = system: CAKI-1
# T47D = system: T47D
# ACHN = system: ACHN
# MDA-MB-231 = system: MDA-MB-231
# EKVX = system: EKVX
# LOX IMVI = system: LOX IMVI
# NCI/ADR-RES = system: NCI/ADR-RES
# COLO 205 = system: COLO 205
# UACC-257 = system: UACC-257
# IGROV-1 = system: IGROV-1
# HOP-92 = system: HOP-92
# DU-145 = system: DU-145
# SNB-19 = system: SNB-19
# KM-20L2 = system: KM-20L2
compound,measurement,setting,value
CCOc1ccccc1NC(=O)C(=O)C1C(=O)Nc2ccccc2[S+]1[O-] (stereo not given),GI50,CCRF-CEM,> 100 µM (inactive)
same,GI50,HCT-116,> 100 µM (inactive)
same,GI50,786-0,> 100 µM (inactive)
same,GI50,SK-MEL-2,> 100 µM (inactive)
same,GI50,MOLT-4,> 100 µM (inactive)
same,GI50,K562,> 100 µM (inactive)
same,GI50,HOP-18,> 100 µM (inactive)
same,GI50,NCI-H522,> 100 µM (inactive)
same,GI50,M14,> 100 µM (inactive)
same,GI50,OVCAR-3,> 100 µM (inactive)
same,GI50,DMS-273,> 100 µM (inactive)
same,GI50,U-251,> 100 µM (inactive)
same,GI50,RXF 393,> 100 µM (inactive)
same,GI50,NCI-H460,> 100 µM (inactive)
same,GI50,SK-MEL-28,> 100 µM (inactive)
same,GI50,HL-60,> 100 µM (inactive)
same,GI50,DMS-114,> 100 µM (inactive)
same,GI50,RPMI-8226,> 100 µM (inactive)
same,GI50,SNB-78,> 100 µM (inactive)
same,GI50,HCC 2998,> 100 µM (inactive)
same,GI50,HCT-15,> 100 µM
same,GI50,UO-31,> 100 µM (inactive)
same,GI50,LXFL 529,> 100 µM (inactive)
same,GI50,SK-OV-3,> 100 µM (inactive)
same,GI50,SF-268,> 100 µM (inactive)
same,GI50,A549,> 100 µM (inactive)
same,GI50,Malme-3M,> 100 µM (inactive)
O=C1NC2(CCN(CCc3ccccc3)CC2)Oc2ccccc21,GI50,CCRF-CEM,49.3 µM (inactive)
same,GI50,HCT-116,55.2 µM (inactive)
same,GI50,TK-10,> 100 µM (inactive)
same,GI50,786-0,> 100 µM (inactive)
same,GI50,SK-MEL-2,> 100 µM (inactive)
same,GI50,UACC-62,46.6 µM (inactive)
same,GI50,MDA-MB-435,53.5 µM (inactive)
same,GI50,BT-549,39 µM (inactive)
same,GI50,SR,52.7 µM (inactive)
same,GI50,MOLT-4,32.5 µM (inactive)
same,GI50,K562,32.5 µM (inactive)
same,GI50,OVCAR-4,> 100 µM (inactive)
same,GI50,OVCAR-8,64.7 µM (inactive)
same,GI50,NCI-H522,95.1 µM (inactive)
same,GI50,A498,68.1 µM (inactive)
same,GI50,SNB-75,36.9 µM (inactive)
same,GI50,SN12C,99.5 µM (inactive)
same,GI50,M14,18.5 µM (inactive)
same,GI50,Hs-578T,15.3 µM (inactive)
same,GI50,OVCAR-3,77.6 µM (inactive)
same,GI50,NCI-H23,64 µM (inactive)
same,GI50,SW-620,> 100 µM (inactive)
same,GI50,U-251,61.9 µM (inactive)
same,GI50,HOP-62,> 100 µM (inactive)
same,GI50,RXF 393,22.4 µM (inactive)
same,GI50,NCI-H460,> 100 µM (inactive)
same,GI50,PC-3,33.9 µM (inactive)
same,GI50,SF-295,49.2 µM (inactive)
same,GI50,MDA-N,41.6 µM (inactive)
same,GI50,SK-MEL-28,73.6 µM (inactive)
same,GI50,KM12,54.7 µM (inactive)
same,GI50,HL-60,40.4 µM (inactive)
same,GI50,NCI-H226,61.1 µM (inactive)
same,GI50,MCF7,46.5 µM (inactive)
same,GI50,SK-MEL-5,14.5 µM (inactive)
same,GI50,HT-29,38 µM (inactive)
same,GI50,RPMI-8226,33.7 µM (inactive)
same,GI50,SF-539,> 100 µM (inactive)
same,GI50,OVCAR-5,44.2 µM (inactive)
same,GI50,HCC 2998,62.1 µM (inactive)
same,GI50,HCT-15,46.3 µM
same,GI50,CAKI-1,> 100 µM (inactive)
same,GI50,UO-31,49 µM (inactive)
same,GI50,T47D,49.7 µM (inactive)
same,GI50,ACHN,84.7 µM (inactive)
same,GI50,MDA-MB-231,88.3 µM (inactive)
same,GI50,EKVX,69.2 µM (inactive)
same,GI50,LOX IMVI,53.7 µM (inactive)
same,GI50,NCI/ADR-RES,38.2 µM (inactive)
same,GI50,COLO 205,31.5 µM (inactive)
same,GI50,UACC-257,37.8 µM (inactive)
same,GI50,IGROV-1,> 100 µM (inactive)
same,GI50,SK-OV-3,> 100 µM (inactive)
same,GI50,SF-268,> 100 µM (inactive)
same,GI50,HOP-92,24.7 µM (inactive)
same,GI50,DU-145,> 100 µM (inactive)
same,GI50,A549,64.6 µM (inactive)
same,GI50,Malme-3M,33.3 µM (inactive)
same,GI50,SNB-19,85.3 µM (inactive)
COc1ccc(/C=C/c2cc(OC)c(OC)c(OC)c2)cc1O [E-COMBRETASTATIN A-4],GI50,TK-10,13.3 µM (inactive)
same,GI50,BT-549,8.95 µM (inactive)
same,GI50,HT-29,7.89 µM (inactive)
same,GI50,OVCAR-5,22.2 µM (inactive)
same,GI50,CAKI-1,6.71 µM (inactive)
same,GI50,UO-31,1.13 µM (inactive)
same,GI50,EKVX,8.73 µM (inactive)
same,GI50,KM-20L2,8.71 µM (inactive)
same,GI50,IGROV-1,3.17 µM (inactive)
